Data on 1 compound can be found in PMC3985299, “Single Ascending Dose Safety and Pharmacokinetics of CDRI-97/78: First-in-Human Study of a Novel Antimalarial Drug” (Malaria Research and Treatment, 2014).

Data set [1] relates to healthy human volunteers. Nature of the data set: Single ascending dose study: haematological parameters. It is filed as in vivo. The note with it: 400 mg. From the text:
The study was approved by the Institute's Ethics Committee. The single ascending dose study and the pharmacokinetic study are registered with Central Trial Registry of India (CTRI/2012/07/002812; CTRI/2012/07/002832). Normal healthy male volunteers in the age group of 18–45 years were invited to join the trial. A detailed informed consent process of the volunteers was undertaken and screening of the volunteers was done after obtaining informed consent. They were recruited through contacts and hospital employees were excluded. The health status of the volunteers was determined by taking medical history, physical examination, routine haematology (haemoglobin, total lymphocyte count, differential count, and platelet count), clinical biochemistry (serum glutamic oxaloacetic transaminase (SGOT), serum glutamic pyruvic transaminase (SGPT), serum bilirubin, serum creatinine, blood urea, serum electrolytes, random blood sugar, total protein, and serum lipid profile), and urine and stool analysis (routine examination and microscopy). The volunteers were asked to report to the study site after 12 hours of fasting for the blood tests. Chest X-ray and 12-lead ECG were also taken. The participants were also screened for human immunodeficiency virus (HIV) and hepatitis B. The volunteers after giving informed consent were screened. The screening process was done latest within 1 month of admission for dosing. The volunteers who fulfilled the inclusion/exclusion criteria were admitted in the CPU the night before drug administration. Standardized dinner was served at 9 pm the night prior to dosing. On day 0, baseline blood sample for biochemical and haematological examination and stool and urine samples for routine and microscopy were taken. […] The subjects were attached to a cardiac monitor and vital HR, BP, ECG, oxygen saturation, and RR were recorded. Corrected QT interval using Fridericia's formula was calculated. Adverse events were assessed at specific time points (0.5, 1, 2, 4, 6, 8, 12, and 24 hrs after medication). […] The study was monitored by a Data Safety Monitoring Board.

The subject of data set [2] is P. cynomolgi. The arrangement: method as in printed. The note with it: P. cynomolgi in rhesus monkeys; background, ref not given; cited from earlier work.

Each structure is given as a SMILES string.

For the compound `C=C(c1ccc(OC(C)(C)COC(=O)CCC(=O)O)cc1)C1COC2(OO1)C1CC3CC(C1)CC2C3` (stereo not shown) [CDRI 97/78, Mono[2methyl2[3(1spiro[tricycle[3.3.1.13,7]decane2,3′-[1,2,4]trioxan] 6′-ylethenyl)phenoxy]propyl] ester], the Hemoglobin in data set [1] (7th day) is listed as 14.35 ± 1.10 gm%; in data set [1] (24 hr), 14.92 ± 0.94 gm%; in data set [1] (baseline), 14.25 ± 0.75 gm%. The Antimalarial activity entry in data set [2] is “powerful antimalarial activity”.
